Series [1] concerns primary human PBMCs. Description: Cytokine production from primary human PBMCs (multiplex). It counts as cell-based. The note with it: plate-coated compound, 24 h, 5 individual donors. From the text:
PBMCs were obtained via leukapheresis from normal donors (AllCells, Berkeley, CA) or fresh blood was obtained from health human donors through a University of Montana Institutional Review Board (IRB) approved protocol. PBMCs obtained via leukapheresis were washed in 1x PBS and cryopreserved in freezing media (50% RPMI, 40% FCS, 10% DMSO) for future use. PBMCs from on-site human donors were separated from whole blood via density gradient separation using Histopaque 1077 (Sigma). Cells were washed in RPMI media containing 10% heat inactivated FBS, penicillin/streptomycin/glutamine (complete media) and resuspended at the desired cell concentration in complete media. Cells were treated with the indicated compound concentrations by addition to plates coated with a serial dilution of the stock compound in diluent (50% isopropanol/50% isooctane, fully evaporated).
Supernatants were harvested from treated cells following 18–24 h of incubation. Supernatants were analyzed using a DuoSet TNFα ELISA (R&D Systems, Minneapolis, MN) or Luminex multiplex panel for analytes TNFα, IL-1β, IL-6, IFNγ, IL-12p70, and IL-23 (R&D Systems) per the manufacturer's instructions. Multiplex analysis was performed using a Luminex 200 instrument (Luminex Corporation) and analyzed with StarStation2.3 software. ELISAs were read on a plate reader at 450 nm and cytokine concentration was calculated by fitting the standard curve OD values to a 4-parameter logistical model using curve fitting software (XLfit, IDBS, Alameda, CA).
To determine if the abridged cytokine repertoire induced by the compounds from the cell lines was a cell-specific or compound-specific phenomenon, the response of a heterogeneous primary human PBMCs to the αTDE compound library was also evaluated. Primary human PBMCs were incubated with the αTDE compound and supernatants were evaluated by multiplex cytokine ELISA for TNFα, IL-1β, IL-23, IL-6 (Th17 associated) and IFNγ and IL-12p70 (Th1 associated). As with THP-1 cells, robust dose-responsive induction of TNFα and IL-1β was detected, but unlike the THP-1 cells dose-responsive stimulation of IL-6 and IL-23 production was also noted in response to a subset of the αTDE compounds (Figure 5). No production of the Th1-associated IFNγ or IL-12p70 were detected (data not shown). […] Consistent with the previous THP-1 cell responses, the longer chain length compounds, B32-B46, induced minimal cytokine responses only at the highest dose evaluated (Figure 5, right graphs).
Figure 5 Cytokine production from primary human mononuclear cells in response to stimulation with synthetic trehalose diester compounds. […] Cryopreserved PBMCs were thawed and applied to the compound-coated plates and incubated at 37°C; supernatant was harvested 24 h later and analyzed for TNFα, IL-1β, IL-23, IL-6. […]

Series [2] deals with T1, mouse Mincle (Mus musculus, UniProt Q9R0Q8).
T1 construct: host or cells: HEK (HEK-Blue) cells with NF-κB-driven SEAP reporter
T1 sequence (Q9R0Q8 1-214): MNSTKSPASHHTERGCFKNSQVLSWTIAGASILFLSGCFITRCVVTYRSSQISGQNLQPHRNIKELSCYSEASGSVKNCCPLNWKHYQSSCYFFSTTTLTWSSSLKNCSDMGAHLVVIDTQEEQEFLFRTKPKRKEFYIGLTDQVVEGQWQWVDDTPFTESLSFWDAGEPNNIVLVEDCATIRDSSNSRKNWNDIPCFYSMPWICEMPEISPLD
Nature of the series: HEK cells expressing mouse Mincle with NF-κB-driven SEAP reporter. It counts as cell-based. The note with it: average calculated EC50, n = 3; plate-coated compound, 24 h; read-out: mMincle EC50 (converted). As to the method: Human and mouse Mincle expressing HEK cells were obtained from Invivogen (San Diego, CA). Cells were cultured according to the manufactures instructions in DMEM with 10% FBS, 50 U/ml penicillin, […] streptomycin, […] Normocin, 2 mM L-glutamine, 30 μg/ml blasticidin, 1 μg/ml puromycin and 1x HEK-Blue™ CLR Selection. For assay, indicated compounds were serially diluted in diluent (50%IPA/50% isooctane), 20 μl of a 10x final concentration were applied to the bottom of a 96-well tissue culture plate and the solvent was evaporated for >1 h in a biosafety hood. HEK cells were applied to the plates at a density of 3 × 10^5 cells/well and incubated for 18–24 h at 37°C. Cell supernatants were harvested and analyzed via the manufacturer's instructions using Hek-Blue^TM Detection. SEAP activity was assessed by reading the optical density (OD) at 620–655 nm with a microplate reader; data are expressed as the fold change in OD over vehicle treated cells.
To investigate the capacity of these molecules to bind to and activate the Mincle receptor, we used human embryonic kidney (HEK) cells expressing the human or mouse Mincle receptor along with an NF-κB-driven secreted embryonic alkaline phosphatase (SEAP) reporter. Many of the αTDE compounds were able to induce production of SEAP in a dose dependent manner (Figure 2). HEK null cells (HEK cells containing the NF-kB reporter without Mincle receptor) were used as a negative controls to confirm the receptor specificity of the compounds in HEK cells expressing human or mouse Mincle reporter (Supplemental Figure 4). […] The relative activity of TDM and TDB in the human and mouse HEK cells is consistent with the results reported by others ([20]). […] This synthetic version is a shorter chain version of the lipid-derived one reported to be “human-specific” ([28]).
Figure 2 Activation of human or mouse Mincle in response to synthetic αTDE compounds. The indicated compounds were dissolved in 50% isopropanol/isooctane, serially diluted in vehicle and then dried to the bottom of a tissue culture plate. HEK cells transfected with human (A–C) or mouse (D–F) Mincle and an NF-κB-driven SEAP reporter were incubated with the compounds for 24 h followed by assessment of the supernatants for SEAP levels. Data are represented as fold change in OD650 over vehicle treated cells. Graphs are mean values from three independent experiments ± SEM. Table in (G) represents the average calculated EC50 and average max SEAP value (± SD, n = 3) for each compound in each cell line. […]

Series [3] has as its system Hek Blue human or mouse Mincle-expressing cells. It counts as cell-based. The note with it: top concentrations, 24 h; compared with vehicle only-treated cells.
The subject of series [4] is BALB/c mice. Nature of the series: Anti-M72 serum antibody ELISA after i.m. vaccination with M72 antigen plus liposomal adjuvant. The note with it: 0.125 μg M72 antigen plus 2, 10, or 50 nmol adjuvant in DDA:DSPC liposomes, i.m. two times, 14 days post-secondary vaccination. It is filed as in vivo, mouse. As to the method: (§1) Animal studies were carried out in an OLAW and AAALAC accredited vivarium in accordance with University of Montana's IACUC guidelines for the care and use of laboratory animals. Groups of 10–14 BALB/c mice were vaccinated intramuscularly with 0.125 μg M72 antigen and indicated concentrations of various CLR adjuvant candidates (liposomal formulations) in 50 μl total volume per injection. After 14 days, blood and serum samples were collected and a secondary vaccination was administered. At day 19 (5 days post-secondary vaccination), 3–6 mice per group were euthanized and spleens were harvested the assessment of cell-mediated immunity. At day 28 (14 days post booster vaccination) the remaining 7 mice in each group were euthanized and blood was collected for the measurement of M72 specific humoral immunity.
Sera was collected from mice 14 days post-primary and 14 days post-secondary injection and diluted according to the expected antibody response (between 1:10 and 1:5000). Plates were coated with 100 μl of the full-length M72 protein at 1 μg/mL. Following washing (PBS plus tween 20) and blocking (SuperBlock, Scytek Laboratories), plates were incubated with diluted serum for 1 h followed by anti-mouse IgG, IgG1, or IgG2a-HRP secondary antibody (Bethyl Laboratories) and TMB substrate (BD). Plates were read at 450 nm. Antibody titers were determined by calculating titer of each sample at OD 0.3.
Figure 6 Serum antibody levels from mice in response to vaccination with recombinant M72 antigen and various αTDE compounds. BALB/c mice, 10 per group, were vaccinated two times i.m. with 0.125 μg antigen plus 2, 10, or 50 nmol of the indicated adjuvant. Serum was analyzed from 7 mice at 14 days post-secondary vaccination for presence of anti-M72 IgG1 and IgG2a antibodies via ELISA.
(§2) Figure 8 B16 liposomes biases a Th17/Th2 adaptive immune response. BALB/c mice, 14 per group, were immunized twice, 14 days apart, i.m with 0.1, 1, or 10 μg of M72 antigen plus either blank DDA:DSPC liposome or B16 loaded (10 nmol final dose) liposome. (A,B) M72-specific serum antibody titers at 14 days post-secondary vaccination. (C–F) Spleens were harvested from mice at 5 days post-secondary vaccination and restimulated with 1 μg/mL whole antigen and transport inhibitors followed by surface staining for CD3, CD4, and CD8 and then intracellular cytokine staining. (C) Percent of live, CD3^+/CD4^+/IL5+ cells, (D) Percent of live, CD3^+/CD8^+/IFNγ+ cells, (E) Percent of live, CD3^+/CD4^+/IL17+ cells, and (F) Percent of live, CD3^+/CD8^+/IL17+ cells. ^*p < 0.05, ^**p < 0.01, ^****p < 0.001.

The subject of series [5] is BALB/c mice. Nature of the series: Splenocyte restimulation with M72 and intracellular cytokine staining of CD4/CD8 T cells after vaccination. It counts as in vivo, mouse. Here is the method:
as §1
Spleens were harvested from vaccinated mice 5 days after secondary injections and splenocytes were harvested by disruption of the spleens through a 100 μm filter. Red blood cells were lysed by incubation with red blood cell lysis buffer (Sigma) for 5 min followed by washing in 1x PBS. Cells were plated in a 96 well plate at 5 × 10^6 cells/well in 200 μL complete RPMI1640 media. Cells were incubated with 1 μg/mL M72 antigen for […] at 37°C. After 7 h, GolgiPlug (Brefeldin A, BD Biosciences) was added to each well and incubated at 37°C for a further 12 h. Following incubation, cells were stained with the cell surface antibodies against CD3e PerCP-Cy5.5 (Tonbo Biosciences, 145-2C11), CD4a APC-Cy7 (Tonbo Biosciences, RM4-5) and CD8a PE-Cy7 (Tonbo Biosciences, 53–6.7) and viability stain (Ghost 510, Tonbo Biosciences). Cells were treated with cytofix/cytoperm (BD) and stained with anti-IFNγ PE-CF594 (BD, XMG1.2), anti-IL2 FITC (Biolegend, JES6-5H4), anti-IL-5 PE (BD, TRFK5), anti-IL17A BV421 (Biolegend, TC11-18H10.1), and anti-TNFα APC (Invitrogen, MP6-XT22). Data was collected using an LSRII flow cytometer (BD) and analyzed using FlowJo 10.0 software (TreeStar). Splenocytes were gated on live, single cells, then CD3+ to identify all T cells, then gated as CD4+CD8- to identify CD4 T cells or CD4-CD8+ to identify CD8 T cells. Gates for intracellular cytokine positive CD4 or CD8 T cells are set based on re-stimulation of naïve splenocytes. Gating strategies for the detection of antigen specific CD4+ and CD8+ T cells are outlined in Supplemental Figure 3.
Figure 7 Induction of IL-17 producing CD4+ and CD8+ T cells from an αTDE adjuvanted M72 vaccine. BALB/c mice, 10 per group, were immunized two times i.m. with 0.125 μg antigen plus 2, 10, or 50 nmol of the indicated adjuvant. Spleens were harvested from a subset of 3 mice per group at 5 days post-secondary vaccination. Splenocytes were restimulated with 1 μg/mL whole antigen and transport inhibitors followed by surface staining for CD3, CD4, and CD8 and then intracellular cytokine staining. Data represent percentage of live, CD3^+/CD4^+, left, or CD3^+/CD8^+, right, cells that are also positive for IL-17A upon stimulation.
as §2
Supplemental Figure 10. Production of IFNɣ, IL-2, IL-5 or TNFα by CD4 or CD8 T cells in response to various CLR compounds. […]

`CC(C)C(=O)OC[C@H]1O[C@H](O[C@H]2O[C@H](COC(=O)C(C)C)[C@@H](O)[C@H](O)[C@H]2O)[C@H](O)[C@@H](O)[C@@H]1O` [Compound B4]: in series [1], the “Th17-associated cytokine production (TNFα, IL-1β, IL-6, IL-23) from human PBMCs” value (“Th17-associated cytokine production” below) is “mixed responses”.
With `CCC(CC)C(=O)OC[C@H]1O[C@H](O[C@H]2O[C@H](COC(=O)C(CC)CC)[C@@H](O)[C@H](O)[C@H]2O)[C@H](O)[C@@H](O)[C@@H]1O` [Compound B6], the EC50 in series [2] was 739 nM. Moreover, the “Th17-associated cytokine production” value in series [1] is recorded as “mixed responses”.
Consider `CCCC(CCC)C(=O)OC[C@H]1O[C@H](O[C@H]2O[C@H](COC(=O)C(CCC)CCC)[C@@H](O)[C@H](O)[C@H]2O)[C@H](O)[C@@H](O)[C@@H]1O` [Compound B8], for which the “Cell viability of Mincle HEK cells” value in series [3] is on record as “marked decreases in viability”. Moreover, in series [2], the EC50 was 2850 nM. For the same compound, in series [1], the “Th17-associated cytokine production” value is “readily detected”.
For the compound `CCCCC(CCCC)C(=O)OC[C@H]1O[C@H](O[C@H]2O[C@H](COC(=O)C(CCCC)CCCC)[C@@H](O)[C@H](O)[C@H]2O)[C@H](O)[C@@H](O)[C@@H]1O` [Compound B10], in series [3], the “Cell viability of Mincle HEK cells” value is given as “marked decreases in viability”. For the same compound, in series [2], the EC50 is 3450 nM. Also, the “Th17-associated cytokine production” value in series [1] is reported as “readily detected”.
Regarding `CCCCCCCCCCCCCCCCCCCCC(CCCCCCCCCCCCCCCCCCCC)C(=O)OC[C@H]1O[C@H](O[C@H]2O[C@H](COC(=O)C(CCCCCCCCCCCCCCCCCCCC)CCCCCCCCCCCCCCCCCCCC)[C@@H](O)[C@H](O)[C@H]2O)[C@H](O)[C@@H](O)[C@@H]1O` [Compound B42], in series [4], the “Anti-M72 serum IgG1 and IgG2a antibody” value is recorded as “neither compound significantly enhanced”. Further, the “IL-5 production in CD8+ T cells” value is listed as “increased” in series [5] (2 nmol adjuvant, 0.125 μg antigen, over liposome control); “increased” in series [5] (50 nmol adjuvant, 0.125 μg antigen, over naïve and liposome control). In series [5] (0.125 μg antigen plus 2, 10, or 50 nmol liposomal adjuvant, i.m. two times, spleens 5 days post-secondary), the “IL-17+ CD4+ and CD8+ T cells (Th17 response) after M72 re-stimulation” value is “able to drive superior Th17 responses”. The “TNFα production by T cells” value in series [5] (highest dose evaluated, 0.125 μg antigen, compared to controls) was “increased compared to controls”.
